Source: patent publication US20230159484A1, “FLUORESCENT DYES HAVING HIGH STOKES SHIFT, ON THE BASIS OF BRIDGED BENZOPYRYLIUM SALTS” (DYOMICS GmbH, priority 2020, published 2023)
Where “and” joins values, the source holds several entries; their conditions need not be identical. Equal values may be shown once.

Key:
[1] = UV-Vis absorption (absorption maximum, extinction coefficient); type: physicochemical
Procedure: (§1) Depending on the basic structure and substitution, the absorption maxima lie in the entire range of visible light, with a focus at 500-530 nm. The compounds show a high Stokes shift in the range of 80 nm. The absorption is measured, for example, at 25° C. in aqueous or ethanolic solutions with an extinction of 1.0 using a Specord 205 from Analytik Jena, wherein the aqueous solutions are preferably phosphate-buffered salt solutions (PBS buffer; approx. 100 mM sodium chloride and 100 mM total phosphate) and have a pH of 7.5. For example, the emission is measured at 25° C. in dilute aqueous or ethanolic solutions with an extinction of 0.1 using a FP-6600 spectrofluorometer from Jasco, wherein the dilute aqueous solutions are preferably phosphate-buffered salt solutions (PBS buffer; about 100 mM sodium chloride and 100 mM total phosphate) and have a pH of 7.5.

[2] = Fluorescence emission (emission maximum); type: physicochemical
Procedure: as §1

SMILES | λmax ([1]; UV-Vis in ethanol) | λem ([2]; in ethanol) [nm] | ε ([1]; UV-Vis in ethanol) | ε ([1]; UV-Vis in PBS) | λmax ([1]; UV-Vis in PBS) [nm] | λem ([2]; in PBS) [nm]
CCOC1=Cc2[o+]c3cc(N(CC)CC)ccc3cc2C(C)(C)C1.F[B-](F)(F)F [Compound 2, 6-ethoxy-N,N-diethyl-8,8-dimethyl-7H-xanthene-10-ium-3-amine tetrafluoroborate] | 531 nm | 605 | – | – | – | –
CC1(C)CC(NCCCS(=O)(=O)[O-])=Cc2[o+]c3cc(N(CCCCCC(=O)ON4C(=O)CCC4=O)CCCS(=O)(=O)[O-])ccc3cc21.[Na+] [Compound 6, 3-[[6-[[6-(2,5-dioxopyrrolidine-1-yl)oxy-6-oxo-hexyl]-(3-sulfonatopropyl)amino]-1,1-dimethyl-2H-xanthene-10-ium-3-yl]amino]propane-1-sulfonate Sodium Salt] | 512 nm | 570 | 44,000 l/mol*cm | – | – | –
CCN(CCCCCC(=O)O)c1ccc2cc3c([o+]c2c1)C=C(Nc1ccccc1)CC3(C)C.[Cl-] [Compound 13, 6-[(6-anilino-8,8-dimethyl-7H-xanthene-10-ium-3-yl)-ethyl-amino]hexanoic Acid Chloride Salt] | 532 nm | 603 | 44,000 l/mol*cm | 38,000 l/mol*cm | 526 | 609
CCN(CCCCCC(=O)O)c1ccc2cc3c([o+]c2c1)C=C(Nc1ccc2cc(S(=O)(=O)[O-])ccc2c1)CC3(C)C [Compound 15, 6-[[6-[5-carboxypentyl(ethyl)amino]-1,1-dimethyl-2H-xanthene-10-ium-3-yl]amino]naphthalene-2-sulfonate] | 546 nm | 619 | 32,000 l/mol*cm | – | – | –
CN(C1=Cc2[o+]c3cc(OCCCCCC(=O)O)ccc3cc2C(C)(C)C1)c1ccccc1.[Cl-] [Compound 18, 6-[[8,8-dimethyl-6-(N-methylanilino)-7H-xanthene-10-ium-3-yl]oxy]hexanoic Acid Chloride Salt] | 452 nm and 469 nm | 520 | – | – | – | –
CN(C1=Cc2[o+]c3cc(OCCCCCC(=O)O)c(S(=O)(=O)[O-])cc3cc2C(C)(C)C1)c1ccc(S(=O)(=O)[O-])cc1.[Na+] [Compound 19, 3-(5-carboxypentoxy)-8,8-dimethyl-6-(N-methyl-4-sulfonato-anilino)-7H-xanthene-10-ium-2-sulfonate Sodium Salt] | 465 nm | 522 | 18,000 l/mol*cm | 16500 L/mol/cm | 460 | 509
CC1=CC(C)(C)N(CCCS(=O)(=O)[O-])c2cc3[o+]c4c(cc3cc21)C(C)(C)CC(NCCCCCC(=O)O)=C4 [Compound 22, 3-[9-(5-carboxypentylamino)-2,2,4,7,7-pentamethyl-8H-chromeno[3,2-g]quinolin-11-ium-1-yl]propane-1-sulfonate] | 531 nm | 589 | 39,000 l/mol*cm | 37500 L/mol/cm | 516 | 590
CCN(CCCCCC(=O)O)c1ccc2cc3c([o+]c2c1)C=C(Nc1cccc(N(C)C)c1)CC3(C)C.[Cl-] [Compound 26, 6-[[6-[3-(dimethylamino)anilino]-8,8-dimethyl-7H-xanthene-10-ium-3-yl]-ethyl-amino]hexanoic Acid Chloride Salt] | 531 nm | 573 | 34,000 l/mol*cm | – | – | –
CCN(CCCCCC(=O)O)c1ccc2cc3c([o+]c2c1)C=C(Nc1ccc(N)cc1)CC3(C)C.[Cl-] [Compound 27, 6-[[6-(4-aminoanilino)-8,8-dimethyl-7H-xanthene-10-ium-3-yl]-ethyl-amino]hexanoic Acid Chloride Salt] | 530 nm | 612 | 35,000 l/mol*cm | – | – | –
CCN(CCCCCC(=O)O)c1ccc2cc3c([o+]c2c1)C=C(N(Cc1ccccn1)Cc1ccccn1)CC3(C)C.[Cl-] [Compound 28, 6-[[6-[bis(2-pyridylmethyl)amino]-8,8-dimethyl-7H-xanthene-10-ium-3-yl]-ethyl-amino]hexanoic Acid Chloride Salt] | 531 nm | 593 | 28,000 l/mol*cm | – | – | –
CCN(CCCCCC(=O)O)c1ccc2cc3c([o+]c2c1)C=C(/C=C1\C=CC=CN1)CC3(C)C.[Cl-] [Compound 29, 6-[[8,8-dimethyl-6-[(E)-1H-pyridine-2-ylidenemethyl]-7H-xanthene-10-ium-3-yl]-ethyl-amino]hexanoic Acid Chloride Salt] | 434 nm | 541 | 24,000 l/mol*cm | – | – | –
CCN(CCCCCC(=O)O)c1ccc2cc3c([o+]c2c1)C=C(c1ccc(N(C)C)cc1)CC3(C)C.[Cl-] [Compound 30, 6-[[6-[4-(dimethylamino)phenyl]-8,8-dimethyl-7H-xanthene-10-ium-3-yl]-ethyl-amino]hexanoic Acid Chloride Salt] | 664 nm | 713 | 30,000 l/mol*cm | – | – | –
CCN(CC)c1ccc2cc3c([o+]c2c1)C=C(C)CC3(C)C.[Cl-] [Compound 31] | 538 nm | 628 | 9,800 l/mol*cm | – | – | –
CCN(CC)c1ccc2cc3c([o+]c2c1)C=C(/C=C/C=C1/N(CCCCCC(=O)O)c2ccc(S(=O)(=O)[O-])cc2C1(C)C)CC3(C)C [Compound 32, (2E)-1-(5-sarboxypentyl)-2-[(E)-3-[6-(diethylamino)-1,1-dimethyl-2H-xantheneium-3-yl]prop-2-enyliden]-3,3-dimethyl-indoline-5-sulfonate] | 770 nm | 795 | 143,600 l/mol*cm | 75000 L/mol/cm | 755 | 788
CCN(CC)c1ccc2c(c1)OC1=C/C(=C/C=C3/C(=O)N(CCCCCC(=O)O)C(=O)N(CCCS(=O)(=O)[O-])C3=O)CC(C)(C)C1=C2.[Na+] [Compound 33, 3-[(5Z)-3-(5-carboxypentyl)-5-[(2E)-2-[6-(diethylamino)-1,1-dimethyl-2H-xanthene-3-ylidene]ethylidene]-2,4,6-trioxo-hexahydropyrimidin-1-yl]propane-1-sulfonate Sodium Salt] | 683 nm | 719 | 67,000 l/mol*cm | – | – | –
CCN(CC)c1ccc2c(c1)OC1=CC(=O)CC(C)(C)C1=C2 [Compound 34, 6-(diethylamino)-1,1-dimethyl-2H-xanthene-3-one] | 440 nm | 540 | 24,800 l/mol*cm | 23000 L/mol/cm | 450 | 558
CCN(CCCCCC(=O)O)c1ccc2c(c1)OC1=CC(=O)CC(C)(C)C1=C2 [Compound 35, 6-[(8,8-dimethyl-6-oxo-7H-xanthene-3-yl)-ethyl-amino]hexanoic Acid] | 441 nm | 540 | 25,300 l/mol*cm | 24,200 l/mol*cm | 457 | 559
CC1(C)CC(=O)C=C2Oc3cc(N(CCCCCC(=O)O)CCCS(=O)(=O)[O-])ccc3C=C21.[Na+] [Compound 37, 3-[5-carboxypentyl-(8,8-dimethyl-6-oxo-7H-xanthene-3-yl)amino]propane-1-sulfonate Sodium Salt] | 439 nm | 538 | 27,000 l/mol*cm | 26,000 l/mol*cm | 454 | 553
CC1(C)CC(=O)C(S(=O)(=O)[O-])=C2Oc3cc(OCCCCCC(=O)O)ccc3C=C21.[Na+] [Compound 40, 6-(5-carboxypentoxy)-1,1-dimethyl-3-oxo-2H-xanthene-4-sulfonate Sodium Salt] | 403 nm | 487 | 19,500 l/mol*cm | 21,000 l/mol*cm | 407 | 483
CC1=CC(C)(C)N(CCCCCC(=O)O)c2cc3c(cc21)C=C1C(=CC(=O)CC1(C)C)O3 [Compound 41, 6-(2,2,4,7,7-pentamethyl-9-oxo-8H-chromeno[3,2-g]quinolin-1-yl)hexanoic Acid] | 463 nm | 557 | 24,000 l/mol*cm | 23,000 l/mol*cm | 460 | 575
CC1=CC(C)(C)N(CCCCCC(=O)O)c2cc3c(cc21)C=C1C(=C(S(=O)(=O)[O-])C(=O)CC1(C)C)O3.[Na+] [Compound 42, 1-(5-carboxypentyl)-2,2,4,7,7-pentamethyl-9-oxo-8H-chromeno[3,2-g]quinoline-10-sulfonate Sodium Salt] | 473 nm | 559 | 30,000 l/mol*cm | 28,000 l/mol*cm | 487 | 578
CCN(CC)c1ccc2c(c1)OC1=Cc3[o+]c4cc(N(CC)CC)ccc4c(-c4ccccc4C(=O)O)c3C(C)(C)C1=C2.[Cl-] [Compound 46, 2-[3,9-bis(diethylamino)-13,13-dimethyl-chromeno[3,2-b]xanthene-5-ium-14-yl]benzoic Acid Chloride Salt] | 664 nm | 710 | 60,000 l/mol*cm | 42000 L/mol/cm | 663 | 711
CCN(CC)c1ccc2cc3c([o+]c2c1)C=C1Oc2cc(N(CC)CCCCCC(=O)O)ccc2C=C1C3(C)C.[Cl-] [Compound 47, 6-[[9-(diethylamino)-13,13-dimethyl-chromeno[3,2-b]xanthene-7-ium-3-yl]-ethyl-amino]hexanoic Acid Chloride Salt] | 679 nm | 713 | 80,300 l/mol*cm | 37000 L/mol/cm | 670 | 710
